Results reported in patent US8288382B2, “Diaminothiazoles useful as Axl inhibitors” (Rigel Pharmaceuticals, Inc., priority 2006, dated 2012).
pIC50: −log10 of the molar value.

What follows are compounds tested against T1, Axl (Homo sapiens, UniProt P30530) (assay: Phospho-Akt In-Cell Western Assay (inhibition of Axl activity)). Conditions: Hela cells, stimulated by Axl-antibody cross-linking, phospho-Akt chemiluminescence normalized to relative cell number.
T1 construct: endogenous in cells; host or cells: HeLa cells
T1 sequence (P30530 26-894): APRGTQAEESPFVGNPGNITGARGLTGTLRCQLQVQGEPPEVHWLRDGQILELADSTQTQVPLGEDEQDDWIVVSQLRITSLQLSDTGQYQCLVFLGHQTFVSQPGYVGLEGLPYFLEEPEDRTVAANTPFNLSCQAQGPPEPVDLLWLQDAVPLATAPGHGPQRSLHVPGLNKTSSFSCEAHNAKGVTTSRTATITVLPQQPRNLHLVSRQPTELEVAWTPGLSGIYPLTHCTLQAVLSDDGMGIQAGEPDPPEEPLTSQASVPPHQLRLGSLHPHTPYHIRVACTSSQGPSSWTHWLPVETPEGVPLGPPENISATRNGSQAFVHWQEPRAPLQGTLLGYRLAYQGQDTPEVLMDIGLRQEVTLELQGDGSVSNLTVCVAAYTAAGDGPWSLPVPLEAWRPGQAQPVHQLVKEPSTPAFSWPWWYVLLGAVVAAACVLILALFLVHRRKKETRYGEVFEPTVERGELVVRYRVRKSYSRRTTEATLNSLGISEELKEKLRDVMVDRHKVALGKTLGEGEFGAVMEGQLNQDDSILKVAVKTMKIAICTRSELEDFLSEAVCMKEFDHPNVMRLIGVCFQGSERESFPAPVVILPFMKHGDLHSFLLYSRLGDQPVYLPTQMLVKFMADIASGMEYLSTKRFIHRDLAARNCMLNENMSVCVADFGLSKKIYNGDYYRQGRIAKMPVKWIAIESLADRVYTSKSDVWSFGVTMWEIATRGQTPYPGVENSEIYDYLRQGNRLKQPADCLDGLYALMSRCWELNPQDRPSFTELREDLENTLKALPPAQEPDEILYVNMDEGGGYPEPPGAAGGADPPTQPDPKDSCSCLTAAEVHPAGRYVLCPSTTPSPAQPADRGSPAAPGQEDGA
Format: cell-based
Method: The compounds of the invention were tested in the following assay for their ability to inhibit Axl activity.
Phospho-Akt In-Cell Western Assay
• Cell culture plate: 96 well assay plate (Corning 3610), white, clear bottom, tissue-culture treated. • Cells: Hela cells. • Starvation medium: For Axl stimulation: 0.5% FCS (fetal calf serum) in DMEM, plus Axl/Fc (extracellular domain of AXL fused to imunoglobulin Fc region) (R&D, 154-AL) 500 ng/mL. • For EGF (epidermal growth factor) stimulation: 0.5% FCS in DMEM (Dulbecco's modified Eagles medium). • Poly-L-Lysine 0.01% solution (the working solution): 10 μg/ml, dilute In PBS (phosphate buffered saline). • Axl antibody cross-linking: • 1st: Mouse anti-Axl (R&D, MAB154). • 2nd: Biotin-SP-conjugated AffiniPure goat anti-mouse IgG (H+L) (Jackson ImmunoResearch #115-065-003). • Fixing buffer: 4% formaldehyde in PBS. • Wash buffer: 0.1% TritonX-100 in PBS. • Quenching buffer: 3% H2O2, 0.1% Azide in wash buffer, Azide and hydrogen peroxide (H2O2) are added fresh. • Blocking buffer: 5% BSA in TBST (tris buffered saline plus 0.1% Tween 20). • Primary antibody: Rabbit anti-human Phospho-Akt antibody (Cell Signaling 9271): 1×250 diluted in blocking buffer. • Secondary antibody: HRP (horse radish peroxidase)-conjugated Goat anti-Rabbit secondary, stock solution: Jackson ImmunoResearch (Goat anti-Rabbit HRP, #111-035-144) 1:1 diluted in glycerol, store at −20° C. The working solution: 1×2000 dilution of stock in blocking buffer. • Chemiluminescent working solution (Pierce, 37030): SuperSignal ELISA (enzyme linked immunosorbant assay) Pico Chemiluminescent substrate. • Crystal Violet solution: Stock: 2.5% Crystal violet in methanol, filtered and kept at ambient temperature. The working solution: dilute the stock 1:20 with PBS immediately before use. • 10% SDS: working solution: 5% SDS (sodium dodecylsulfate), diluted in PBS Methods: Day 1:
A 96 well TC (tissue culture treated) plate was coated with 10 μg/mL poly-L-Lysine at 37° C. for 30 min, washed twice with PBS, and air-dried for 5 minutes before cells were added. Hela cells were seeded at 10,000 cells/well and the cells were starved in 100 μL starvation medium containing Axl/Fc for 24 hrs.
The cells were pre-treated with test compounds by adding 100 μL of 2× test compound to the starvation medium on the cells. The cells were incubated at 37° C. for 1 hr before stimulation.
The cells were stimulated by Axl-antibody cross-linking as follows: A 5× 1st/2nd Axl antibody mixture was made (37.5 μg/mL 1st/100 μg/mL 2nd) in starvation medium and nutated at 4° C. with thorough mixing for 1-2 hours for clustering. The resulting mix was warmed to 37° C. 50 μL of 5× Axl 1st/2nd of antibody cluster was added to the cells and the cells were incubated at 37° C. for 5 min.
After 5 minutes stimulation, the plate was flicked to remove medium and the plate was tapped onto paper towels. Formaldehyde (4.0% in PBS, 100 μL) was added to fix the cells and the cells were incubated at ambient temperature for 20 min without shaking.
The cells were washed with a plate washer buffer to remove the formaldehyde solution. The plate was flicked to removed excess wash buffer and tapped onto paper towels. Quenching buffer (100 μL) was added to each well and the cells were incubated at ambient temperature for 20 minutes without shaking.
The cells were washed with a plate washer buffer to remove the quenching buffer. Blocking buffer (100 μL) was added and the cells were incubated at ambient temperature for at least an hour with gentle shaking.
The cells were washed with a plate washer buffer and diluted primary antibody (50 μL) was added to each well (blocking buffer was added to the negative control wells instead). The plates were incubated overnight at 4° C. with gentle shaking.
The wash buffer was removed, diluted secondary antibody (100 μL) was added, and the cells were incubated at ambient temperature for 1 hour with gentle shaking. […]

Compound | pIC50
Nc1nc(Nc2ccc(OCCN3CCCC3)cc2)sc1-c1nc2ccccc2s1 [Compound 9, 5-(benzo[d]thiazol-2-yl)-N^2-(4-(2-(pyrrolidin-1-yl)ethoxy)phenyl)thiazole-2,4-diamine] | 5.00 to 6.00
Nc1nc(Nc2ccc(OCCN3CCCC3)cc2)sc1-c1cnc2ccccc2n1 [Compound 4, N^2-(4-(2-(pyrrolidin-1-yl)ethoxy)phenyl)-5-(quinoxalin-2-yl)thiazole-2,4-diamine] | 5.00 to 6.00
COc1cc(Nc2nc(N)c(-c3cnc4ccccc4n3)s2)cc(OC)c1OC [Compound 3, 5-(quinoxalin-2-yl)-N^2-(3,4,5-trimethoxyphenyl)thiazole-2,4-diamine] | 5.00 to 6.00
Nc1nc(Nc2ccc(N3CCOCC3)cc2)sc1-c1nccc2ccccc12 [Compound 7, 5-(isoquinolin-1-yl)-N^2-(4-morpholinophenyl)thiazole-2,4-diamine] | 4.70 to 5.00
COc1cc2ncnc(-c3sc(Nc4ccc(OCCN5CCCC5)cc4)nc3N)c2cc1OC [Compound 1, 5-(6,7-dimethoxyquinazolin-4-yl)-N^2-(4-(2-(pyrrolidin-1-yl)ethoxy)phenyl)thiazole-2,4-diamine] | 5.00 to 6.00
Nc1nc(Nc2ccc(OCCN3CCCC3)cc2)sc1-c1nccc2ccccc12 [Compound 8, 5-(isoquinolin-1-yl)-N^2-(4-(2-(pyrrolidin-1-yl)ethoxy)phenyl)thiazole-2,4-diamine] | < 4.70
Nc1nc(Nc2ccc(OCCN3CCCC3)cc2)sc1-c1ncnc2ccccc12 [Compound 5, N^2-(4-(2-(pyrrolidin-1-yl)ethoxy)phenyl)-5-(quinazolin-4-yl)thiazole-2,4-diamine] | 5.00 to 6.00
COc1ccc(Nc2nc(N)c(-c3ccccn3)s2)cc1 [Compound 2, N^2-(4-methoxyphenyl)-5-(pyridin-2-yl)thiazole-2,4-diamine] | < 4.70
COc1cc(Nc2nc(N)c(-c3ncnc4ccccc34)s2)cc(OC)c1OC [Compound 6, 5-(quinazolin-4-yl)-N^2-(3,4,5-trimethoxyphenyl)thiazole-2,4-diamine] | < 4.70

Other lines, results leading:

pIC50 | Compound
5.00 to 6.00 | COc1cc2ncnc(-c3sc(Nc4ccc(N5CCN(C)CC5)cc4)nc3N)c2cc1OC [Compound 11, 5-(6,7-dimethoxyquinazolin-4-yl)-N^2-(4-(4-methylpiperazin-1-yl)phenyl)thiazole-2,4-diamine]
5.00 to 6.00 | Nc1nc(Nc2ccc(N3CCN(C4CC5CCC4C5)CC3)cc2)sc1-c1ncnc2ccsc12 (centres unmarked) [Compound 12, N^2-(4-(4-(bicyclo[2.2.1]heptan-2-yl)piperazin-1-yl)phenyl)-5-(thieno[3,2-d]pyrimidin-4-yl)thiazole-2,4-diamine]
5.00 to 6.00 | COc1cc2ncnc(-c3sc(Nc4ccc(N5CCOCC5)cc4)nc3N)c2cc1OC [Compound 10, 5-(6,7-dimethoxyquinazolin-4-yl)-N^2-(4-morpholinophenyl)thiazole-2,4-diamine]
5.00 to 6.00 | COc1cc2ncnc(-c3sc(Nc4ccc(OCCN5CCCC5)c(Cl)c4)nc3N)c2cc1OC [Compound 14, N^2-(3-chloro-4-(2-(pyrrolidin-1-yl)ethoxy)phenyl)-5-(6,7-dimethoxyquinazolin-4-yl)thiazole-2,4-diamine]
< 4.70 | COc1cc2ncnc(-c3sc(Nc4ccc(N5CCN(C6CC7CCC6C7)CC5)cc4)nc3N)c2cc1OC (centres unmarked) [Compound 13, N^2-(4-(4-(bicyclo[2.2.1]heptan-2-yl)piperazin-1-yl)phenyl)-5-(6,7-dimethoxyquinazolin-4-yl)thiazole-2,4-diamine]
